The target of one data set is T1, Human 5-HT4(d) (Homo sapiens, UniProt Q13639).
T1 construct: expressed in transfected cells
In words: Agonist-induced cAMP elevation in human 5-HT4(d) transfected HEK293 cells. The following applies: for Emax: HEK293, cAMP production normalized to the amount produced by 1,000 nM serotonin; for EC50: cAMP elevation (HTRF), human 5-HT4(d) transfected HEK293 cells. The class given is cell-based. On the procedure:
Human 5-HT4(d) transfected HEK293 cells were established in-house. The cells were grown at 37° C. and 5% CO2 in DMEM supplemented with 10% FCS, 20 mM HEPES (pH 7.4), 200 μg/ml hygromycin B (Gibco), 100 units/ml penicillin and 100 μg/ml streptomycin.
The cells were grown to 60-80% confluence. On the previous day before treatment with compounds dialyzed FCS (Gibco) was substituted for normal and the cells were incubated overnight.
Compounds were prepared in 96-well plates (12.5 μl/well). The cells were harvested with PBS/1 mM EDTA, centrifuged and washed with PBS. At the beginning of the assay, cell pellet was resuspended in DMEM supplemented with 20 mM HEPES, 10 μM pargyline (Sigma) and 1 mM 3-isobutyl-1-methylxanthine (Sigma) at the concentration of 1.6×10^5 cells/ml and left for 15 min at room temperature. The reaction was initiated by addition of the cells into plates (12.5 μl/well). After incubation for 15 min at room temperature, 1% Triton X-100 was added to stop the reaction (25 μl/well) and the plates were left for 30 minutes at room temperature. Homogenous time-resolved fluorescence-based cAMP (Schering) detection was made according to the manufacturer's instruction. ARVOsx multilabel counter (Wallac) was used to measure HTRF (excitation 320 nm, emission 665 nm/620 nm, delay time 50 μs, window time 400 μs).
Data was analyzed based on the ratio of fluorescence intensity of each well at 620 nm and 665 nm followed by cAMP quantification using cAMP standard curve. Enhancement of cAMP production elicited by each compound was normalized to the amount of cAMP produced by 1,000 nM serotonin (Sigma).

SMILES strings stand for the structures. Counter-ions that a name gives are not always drawn.

T1 sequence (Q13639 1-360 isoform Q13639-3): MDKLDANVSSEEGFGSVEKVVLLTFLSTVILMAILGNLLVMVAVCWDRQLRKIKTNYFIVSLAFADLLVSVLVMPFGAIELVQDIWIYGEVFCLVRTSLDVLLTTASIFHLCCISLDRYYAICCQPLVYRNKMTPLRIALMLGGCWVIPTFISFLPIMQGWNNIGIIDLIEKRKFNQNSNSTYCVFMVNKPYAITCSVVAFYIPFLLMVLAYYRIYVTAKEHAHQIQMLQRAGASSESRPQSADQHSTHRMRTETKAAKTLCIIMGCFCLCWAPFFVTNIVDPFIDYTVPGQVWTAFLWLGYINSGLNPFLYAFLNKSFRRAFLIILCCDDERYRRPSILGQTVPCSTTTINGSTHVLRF

For `CC(C)COc1cccc2onc(OCC3CCN(C[C@H]4CC[C@H](C(=O)O)CC4)CC3)c12` [Example 14, trans-4-[(4-{[(4-Isobutoxy-1,2-benzisoxazol-3-yl)oxy]methyl}piperidin-1-yl)methyl]cyclohexane-carboxylic acid], the melting point was 103.3 °C. At Human 5-HT4(d), this compound returned a maximum response (Emax) of 41% and an EC50 of 2 nM.

On to `O=C(O)C1(CN2CCC(COc3noc4cccc(OC5CCOCC5)c34)CC2)CCCC1` [Example 28, 1-{[4-({[4-(Tetrahydro-2H-pyran-4-yloxy)-1,2-benzisoxazol-3-yl]oxy}methyl)piperidin-1-yl]methyl}-cyclopentanecarboxylic acid], for which the melting point is 172.9 °C. Further, at Human 5-HT4(d), the maximum response (Emax) came out at 78% and the EC50 came out at 6.6 nM.

The compound `O=C(O)C1(CN2CCC(COc3noc4cccc(OCC5CCC5)c34)CC2)CCC1` [Example 20, 1-{[4-({[4-(Cyclobutylmethoxy)-1,2-benzisoxazol-3-yl]oxy}methyl)piperidin-1-yl]methyl}cyclo-butanecarboxylic acid] showed a melting point of 176.9 °C. At Human 5-HT4(d), this compound registered an Emax of 50% and an EC50 of 0.24 nM.

In the case of `O=C(O)C1(CN2CCC(COc3noc4cccc(OCC5(CO)CCC5)c34)CC2)CCC1` [Example 50], the melting point came to 194.2 °C. On Human 5-HT4(d), this compound showed an Emax of 50% and an EC50 of 98 nM.

With `O=C1CCCC1Oc1cccc2onc(OCC3CCN(CC4(O)CCOCC4)CC3)c12` (stereo not shown) [Example 38, 2-{[3-({1-[(4-Hydroxytetrahydro-2H-pyran-4-yl)methyl]piperidin-4-yl}methoxy)-1,2-benzisoxazol-4-yl]oxy}cyclopentanone], the melting point stood at 133.1 °C. On Human 5-HT4(d), this compound returned an Emax of 40% and a 50% effective concentration (EC50) of 0.84 nM.

Compound `CC(C)COc1cccc2onc(OCC3CCN(CCC4(C(=O)O)CCOCC4)CC3)c12` [Example 13, 4-[2-(4-{[(4-Isobutoxy-1,2-benzisoxazol-3-yl)oxy]methyl}piperidin-1-yl)ethyl]tetrahydro-2H-pyran-4-carboxylic acid] registered a melting point of 213.8 °C. In addition, on Human 5-HT4(d), the Emax came to 54% and the half-maximal effective concentration (EC50) is 2.7 nM.

As to `O=C(O)C1(CN2CCC(COc3noc4cccc(O[C@H]5CC[C@H](O)CC5)c34)CC2)CCOCC1` [Example 42, 4-({4-[({4-[(trans-4-Hydroxycyclohexyl)oxy]-1,2-benzisoxazol-3-yl}oxy)methyl]piperidin-1-yl}-methyl)tetrahydro-2H-pyran-4-carboxylic acid], at Human 5-HT4(d), the Emax came out at 67% and a half-maximal response (EC50) required 18 nM.

On Human 5-HT4(d), `O=C(O)C1(CN2CCC(COc3noc4cccc(OC5CCOCC5)c34)CC2)CCOCC1` [Example 27, 4-{[4-({[4-(Tetrahydro-2H-pyran-4-yloxy)-1,2-benzisoxazol-3-yl]oxy}methyl)piperidin-1-yl]methyl}-tetrahydro-2H-pyran-4-carboxylic acid] came in with a maximal effect (Emax) of 71% and a concentration for a half-maximal effect (EC50) of 11 nM.

On Human 5-HT4(d), `O=C(O)C1(CN2CCC(COc3noc4cccc(OCC(F)(F)F)c34)CC2)CCOCC1` [Example 1, 4-{[4-({[4-(2,2,2-Trifluoroethoxy)-1,2-benzisoxazol-3-yl]oxy}methyl)piperidin-1-yl]methyl}tetrahydro-2H-pyran-4-carboxylic acid] had an Emax of 69% and an EC50 of 1.5 nM.

On Human 5-HT4(d), `CC(C)COc1cccc2onc(OCC3CCN(CC4(O)CCOCC4)CC3)c12` [Example 8, 1-[(4-Hydroxytetrahydro-2H-pyran-4-yl)methyl]-4-{[(4-isobutoxy-1,2-benzisoxazol-3-yl)oxy]methyl}-piperidinium and its p-toluenesulfonate salt] registered an Emax of 39% and an EC50 of 2.6 nM.

At Human 5-HT4(d), `O=C(O)C1(CCN2CCC(COc3noc4cccc(OC5CCCC5)c34)CC2)CCOCC1` [Example 25, 4-{2-[4-({[4-(Cyclopentyloxy)-1,2-benzisoxazol-3-yl]oxy}methyl)piperidin-1-yl]ethyl}tetrahydro-2H-Pyran-4-carboxylic acid] displayed an Emax of 41% and a concentration for a half-maximal effect (EC50) of 3 nM.

For `O=C(O)C1(CN2CCC(COc3noc4cccc(O[C@H]5CCC[C@@H]5O)c34)CC2)CCC1` (relative stereo) [Example 34, 1-({4-[({4-[(trans-2-Hydroxycyclopentyl)oxy]-1,2-benzisoxazol-3-yl}oxy)methyl]piperidin-1-yl}-methyl)cyclobutanecarboxylic acid], at Human 5-HT4(d), the Emax was determined as 46% and the EC50 was 2.7 nM.

For the compound `O[C@H]1CC[C@H](Oc2cccc3onc(OCC4CCN(CC5(O)CCOCC5)CC4)c23)C1` (relative stereo) [Example 39, 4-({4-[({4-[(trans-3-Hydroxycyclopentyl)oxy]-1,2-benzisoxazol-3-yl}oxy)methyl]piperidin-1-yl}methyl)tetrahydro-2H-pyran-4-ol], at Human 5-HT4(d), the Emax amounted to 56% and the midpoint of the response, the EC50, lay at 1.3 nM.

Turning to `O[C@H]1CCC[C@@H]1Oc1cccc2onc(OCC3CCN(CC4(O)CCOCC4)CC3)c12` (relative stereo) [Example 32, 4-({4-[({4-[(trans-2-Hydroxycyclopentyl)oxy]-1,2-benzisoxazol-3-yl}oxy)methyl]piperidin-1-yl}-methyl)tetrahydro-2H-pyran-4-ol], at Human 5-HT4(d), the Emax came out at 40% and the response was half-maximal at 1.6 nM (EC50).

With `CO[C@@H]1CCC[C@@H]1Oc1cccc2onc(OCC3CCN(CC4(O)CCOCC4)CC3)c12` (relative stereo) [Example 37, 4-({4-[({4-[(cis-2-Methoxycyclopentyl)oxy]-1,2-benzisoxazol-3-yl}oxy)methyl]piperidin-1-yl}methyl)-tetrahydro-2H-pyran-4-ol and its oxalate salt], on Human 5-HT4(d), the Emax amounted to 50% and the response was half-maximal at 8.8 nM (EC50).

On Human 5-HT4(d), `O=C(O)C1(CN2CCC(COc3noc4cccc(O[C@H]5CC[C@@H](O)CC5)c34)CC2)CCOCC1` [Example 43, 4-({4-[({4-[(cis-4-Hydroxycyclohexyl)oxy]-1,2-benzisoxazol-3-yl}oxy)methyl]piperidin-1-yl}methyl)-tetrahydro-2H-pyran-4-carboxylic acid] came in with an Emax of 49% and an EC50 of 3.3 nM.

In the case of `CO[C@H]1CCC[C@@H]1Oc1cccc2onc(OCC3CCN(CC4(O)CCOCC4)CC3)c12` (relative stereo) [Example 35, 4-({4-[({4-[(trans-2-Methoxycyclopentyl)oxy]-1,2-benzisoxazol-3-yl}oxy)methyl]piperidin-1-yl}-methyl)tetrahydro-2H-pyran-4-ol and its 4-methylbenzenesulfonate], at Human 5-HT4(d), the Emax turned out to be 56% and the EC50 is 1.4 nM.

On Human 5-HT4(d), `O=C(O)C1(CN2CCC(COc3noc4cccc(OCC5(CO)CCCC5)c34)CC2)CCC1` [Example 52, 1-[(4-{[(4-{[1-(Hydroxymethyl)cyclopentyl]methoxy}-1,2-benzisoxazol-3-yl)oxy]methyl}piperidin-1-yl)methyl]cyclobutanecarboxylic acid] had an Emax of 41% and a concentration for a half-maximal effect (EC50) of 30 nM.

At Human 5-HT4(d), `O=C(O)C1(CN2CCC(COc3noc4cccc(O[C@H]5CCC[C@@H]5O)c34)CC2)CCCC1` (relative stereo) [Example 33, 1-({4-[({4-[(trans-2-Hydroxycyclopentyl)oxy]-1,2-benzisoxazol-3-yl}oxy)methyl]piperidin-1-yl}methyl)cyclopentanecarboxylic acid] came in with a maximal effect (Emax) of 51% and an EC50 of 3.3 nM.

Take `O=C(O)C1(CN2CCC(COc3noc4cccc(OCC5(CO)CCCC5)c34)CC2)CCOCC1` [Example 51, 4-[(4-{[(4-{[1-(Hydroxymethyl)cyclopentyl]methoxy}-1,2-benzisoxazole-3-yl)oxy]methyl}piperidin-1-yl)methyl]tetrahydro-2H-pyran-4-carboxylic acid]: on Human 5-HT4(d), the maximal effect (Emax) worked out at 33% and the concentration giving a half-maximal response (EC50) came out at 27 nM.

At Human 5-HT4(d), `O=C(O)C1(CN2CCC(COc3noc4cccc(OCC5(CO)CCC5)c34)CC2)CCOCC1` [Example 49, 4-[(4-{[(4-{[1-(Hydroxymethyl)cyclobutyl]methoxy}-1,2-benzisoxazol-3-VI)oxy]methyl}piperidin-1-yl)methyl]tetrahydro-2H-pyran-4-carboxylic acid] gave a maximal effect (Emax) of 40% and a concentration for a half-maximal effect (EC50) of 65 nM.

Turning to `OC1(CN2CCC(COc3noc4cccc(O[C@H]5CC[C@H](O)CC5)c34)CC2)CCOCC1` [Example 41, 4-({4-[({4-[(trans-4-Hydroxycyclohexyl)oxy]-1,2-benzisoxazol-3-yl}oxy)methyl]piperidin-1-yl}-methyl)tetrahydro-2H-pyran-4-ol], at Human 5-HT4(d), the maximal effect (Emax) came to 44% and a half-maximal response (EC50) required 3 nM.

On Human 5-HT4(d), `O=C(O)[C@H]1CC[C@H](CN2CCC(COc3noc4cccc(O[C@H]5CC[C@@H](CO)CC5)c34)CC2)CC1` [Example 47, trans-4-[(4-{[(4-{[cis-4-(Hydroxymethyl)cyclohexyl]oxy}-1,2-benzisoxazol-3-yl)oxy]methyl}-Piperidin-1-yl)methyl]cyclohexanecarboxylic acid] had an Emax of 71% and an EC50 of 5.3 nM.
